The values below come from patent publication US8765730B2 (Hoffmann-La Roche Inc, priority 2010, dated 2014).

The first experiment addresses T1, human GPBAR1 receptor (Homo sapiens, UniProt Q8TDU6).
T1 construct: expressed in transfected cells
T1 sequence (Q8TDU6 1-330): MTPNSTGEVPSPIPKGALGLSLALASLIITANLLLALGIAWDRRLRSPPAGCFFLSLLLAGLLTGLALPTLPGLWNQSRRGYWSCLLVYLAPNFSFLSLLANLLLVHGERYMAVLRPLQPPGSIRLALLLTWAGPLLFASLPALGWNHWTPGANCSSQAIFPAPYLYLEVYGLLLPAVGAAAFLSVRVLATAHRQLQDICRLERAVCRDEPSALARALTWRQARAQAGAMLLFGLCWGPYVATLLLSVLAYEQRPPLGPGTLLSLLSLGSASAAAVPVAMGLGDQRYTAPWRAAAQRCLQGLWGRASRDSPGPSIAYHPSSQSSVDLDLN
Briefly: functional cAMP assay in CHO-dhfr(minus) cells expressing human GPBAR1 receptors. Type of experiment: cell-based. The following applies: functional cAMP assay, 30 min at 30° C., read-out: human EC50. Summed up: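 Agonist cAMP read-out: stable GPBAR1 CHO-dhfr− clone, 30 min compound exposure at 30° C following 30 min IBMX (1 mM) preincubation in Krebs Ringer bicarbonate. Time-resolved energy-transfer detection gives EC50; parental CHO cells serve as counter-screen.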
As for `O/N=C(/CC(O)(c1ccccc1)c1ccccc1)c1ccncc1` [Example 155, (Z)-3-Hydroxy-3,3-diphenyl-1-pyridin-4-yl-propan-1-one oxime], the 50% effective concentration (EC50) amounted to 8620 nM.

Staying with this experiment, now noted: human EC50, functional cAMP assay, 30 min at 30° C.
For `Cn1cc(/C(CC(c2ccc(S(C)(=O)=O)cc2)c2ccc(Cl)cc2F)=N/O)ccc1=O` (stereo not drawn) [Example 314, (E)-5-(3-(4-chloro-2-fluorophenyl)-1-(hydroxyimino)-3-(4-(methylsulfonyl)phenyl)propyl)-1-methylpyridin-2(1H)-one], it took 84 nM to reach a half-maximal effect (EC50).

Turning to `Cc1ccc(-c2ccc(C(C/C(=N\O)c3ccncc3)c3ccccc3)cc2)cn1` (stereo not drawn) [Example 25, (E)-3-[4-(6-Methyl-pyridin-3-yl)-phenyl]-3-phenyl-1-pyridin-4-yl-propan-1-one oxime], the EC50 was determined as 356 nM.

In turn, `OCc1ccc(-c2ccc(C(C/C(=N\O)c3ccncc3)c3ccccc3)cc2)cc1` (stereo not drawn) [Example 27, (E)-3-(4′-Hydroxymethyl-biphenyl-4-yl)-3-phenyl-1-pyridin-4-yl-propan-1-one oxime] had an EC50 of 92 nM.

Consider `Cc1cc(/C(C[C@H](c2ccc(C3CCN(S(N)(=O)=O)CC3)cc2)c2ccc(Cl)cc2C)=N/O)ccn1` [Example 480, (R,E)-4-(4-(1-(4-Chloro-2-methylphenyl)-3-(hydroxyimino)-3-(2-methylpyridin-4-yl)propyl)phenyl)piperidine-1-sulfonamide], for which the EC50 came to 20 nM.

The molecule `ON=C(CC(c1ccccc1)c1ccc(Br)cc1)c1ccnc(Cl)c1` (racemic) [Example 46, 3-(4-Bromo-phenyl)-1-(2-chloro-pyridin-4-yl)-3-phenyl-propan-1-one oxime] returned a 50% effective concentration (EC50) of 1360 nM.

In turn, `Cc1cc(/C(C[C@H](c2ccc(C(=O)N(C)CCO)cc2)c2ccccc2C)=N/O)ccn1` [Example 274, N-(2-Hydroxy-ethyl)-4-[(R)-3-[(E)-hydroxyimino]-3-(2-methyl-pyridin-4-yl)-1-o-tolyl-propyl]-N-methyl-benzamide] gave a half-maximal effective concentration (EC50) of 80 nM.

In the case of `Cc1ccccc1C(C/C(=N\O)c1cncc(Br)c1)c1cccc(Br)c1` (stereo not drawn) [Example 123, (E)-3-(3-Bromo-phenyl)-1-(5-bromo-pyridin-3-yl)-3-o-tolyl-propan-1-one oxime], the EC50 was determined as 4540 nM.

In turn, `Cn1cc(C(CC(c2ccc(C(=O)NCCO)c(F)c2)c2ccccc2Cl)=NO)ccc1=O` (mixture of isomers) [Example 216, (E/Z)-4-(1-(2-Chlorophenyl)-3-(hydroxyimino)-3-(1-methyl-6-oxo-1,6-dihydropyridin-3-yl)propyl)-2-fluoro-N-(2-hydroxyethyl)benzamide] yielded an EC50 of 255 nM.

For `Cc1cc(/C(C[C@H](c2ccc(-c3ccc(C(=O)O)c(Cl)c3)cc2)c2ccc(Cl)cc2F)=N/O)ccn1` [Example 452, (−)-3-Chloro-4′-[1-(4-chloro-2-fluoro-phenyl)-3-[(E)-hydroxyimino]-3-(2-methyl-pyridin-4-yl)-propyl]-biphenyl-4-carboxylic acid], the EC50 is 15 nM.

In the case of `CS(=O)(=O)c1ccc(-c2ccc(C(C/C(=N\O)c3ccncc3)c3ccccc3)cc2)cc1` (stereo not drawn) [Example 20, (E)-3-(4′-Methanesulfonyl-biphenyl-4-yl)-3-phenyl-1-pyridin-4-yl-propan-1-one oxime], the midpoint of the response, the EC50, lay at 66 nM.

In turn, `Cc1cc(F)ccc1C(C/C(=N\O)c1ccc(=O)n(C)c1)c1ccc(Br)cc1` (stereo not drawn) [Example 224, (E)-5-(3-(4-Bromophenyl)-3-(4-fluoro-2-methylphenyl)-1-(hydroxyimino)propyl)-1-methylpyridin-2(1H)-one] registered an EC50 of 6 nM.

As to `Cc1ccccc1[C@H](C/C(=N/O)c1ccc(=O)n(C)c1)c1ccc(C#N)cc1` [Example 499, (R,Z)-4-(3-(hydroxyimino)-3-(1-methyl-6-oxo-1,6-dihydropyridin-3-yl)-1-o-tolylpropyl)benzonitrile], the midpoint of the response, the EC50, lay at 4500 nM.

`Cn1cc(/C(CC(c2ccc(S(C)(=O)=O)cc2)c2cc(Cl)ccc2Cl)=N/O)ccc1=O` (stereo not drawn) [Example 350, (E)-5-(3-(2,5-Dichlorophenyl)-1-(hydroxyimino)-3-(4-(methylsulfonyl)phenyl)propyl)-1-methylpyridin-2(1H)-one] had an EC50 of 129 nM.

`Cc1cc(Cl)ccc1[C@@H](C/C(=N\O)c1ccc(=O)n(C)c1)c1ccc(-c2ccc(C(=O)O)cc2)cc1` (single isomer, unassigned) [Example 394, (−)-4′-[1-(4-Chloro-2-methyl-phenyl)-3-[(E)-hydroxyimino]-3-(1-methyl-6-oxo-1,6-dihydro-pyridin-3-yl)-propyl]-biphenyl-4-carboxylic acid; compound with triethylamine 1:0.85] returned an EC50 of 302 nM.

Turning to `Cc1ccccc1C(C/C(=N\O)c1ccncc1)c1ccc(N2CCN(S(C)(=O)=O)CC2)cc1` (stereo not drawn) [Example 136, (E)-3-[4-(4-Methanesulfonyl-piperazin-1-yl)-phenyl]-1-pyridin-4-yl-3-o-tolyl-propan-1-one oxime], the response was half-maximal at 24 nM (EC50).

The molecule `Cn1cc(/C(CC(c2ccc(-c3c[nH]c(=O)[nH]c3=O)cc2)c2ccc(Cl)cc2F)=N/O)ccc1=O` (stereo not drawn) [Example 471, 5-{4-[1-(4-Chloro-2-fluoro-phenyl)-3-[(E)-hydroxyimino]-3-(1-methyl-6-oxo-1,6-dihydro-pyridin-3-yl)-propyl]-phenyl}-1H-pyrimidine-2,4-dione] yielded a concentration for a half-maximal effect (EC50) of 170 nM.

`Cc1cc(/C(CC(c2ccc(-c3ccc(C(=O)O)c(F)c3)cc2)c2ccc(Cl)cc2F)=N/O)ccn1` (stereo not drawn) [Example 447, 4′-[1-(4-Chloro-2-fluoro-phenyl)-3-[(E)-hydroxyimino]-3-(2-methyl-pyridin-4-yl)-propyl]-3-fluoro-biphenyl-4-carboxylic acid] displayed an EC50 of 12 nM.

The molecule `O/N=C(\CC1c2ccccc2CCc2ccccc21)c1ccncc1` [Example 60, (E)-2-(10,11-Dihydro-5H-dibenzo[a,d]cyclohepten-5-yl)-1-pyridin-4-yl-ethanone oxime] gave an EC50 of 810 nM.

`Cc1cc(Cl)ccc1[C@H](C/C(Cc1ccccn1)=N\O)c1ccc(Br)cc1` [Example 362, (E,R)-4-(4-bromo-phenyl)-4-(4-chloro-2-methyl-phenyl)-1-pyridin-2-yl-butan-2-one oxime] yielded an EC50 of 2000 nM.

For `Cc1cc(Cl)ccc1C(C/C(=N\O)c1ccc(=O)n(C)c1)c1ccc(N2CCCC2=O)cc1` (stereo not drawn) [Example 355, 5-{3-(4-Chloro-2-methyl-phenyl)-1-[(E)-hydroxyimino]-3-[4-(2-oxo-pyrrolidin-1-yl)-phenyl]-propyl}-1-methyl-1H-pyridin-2-one], the midpoint of the response, the EC50, lay at 110 nM.

For the molecule `Cc1cc(=O)n(C)cc1/C(CC(c1ccc(Br)cc1)c1ccccc1C)=N/O` (stereo not drawn) [Example 199, 5-{3-(4-Bromo-phenyl)-1-[(E)-hydroxyimino]-3-o-tolyl-propyl}-1,4-dimethyl-1H-pyridin-2-one], the response was half-maximal at 23 nM (EC50).

Molecule `Cc1cc(/C(C[C@@H](c2ccc(N3CCC(C(=O)O)CC3)cc2)c2ccc(F)cc2F)=N/O)ccn1` (single isomer, unassigned) [Example 428, 1-{4-[(+)-1-(2,4-Difluoro-phenyl)-3-[(E)-hydroxyimino]-3-(2-methyl-pyridin-4-yl)-propyl]-phenyl}-piperidine-4-carboxylic acid] registered an EC50 of 18 nM.

As for `Cc1cc(/C(C[C@H](c2ccc(Br)cc2)c2ccc(Cl)cc2C)=N/O)ccn1` [Example 386, (R,E)-3-(4-bromophenyl)-3-(4-chloro-2-methylphenyl)-1-(2-methylpyridin-4-yl)propan-1-one oxime], a half-maximal response (EC50) required 169 nM.

Molecule `Cc1cc(C(CC(c2cccc(-c3ccc(S(C)(=O)=O)cc3)c2)c2ccccc2C)=NO)ccn1` (racemic) [Example 104, 3-(4′-Methanesulfonyl-biphenyl-3-yl)-1-(2-methyl-pyridin-4-yl)-3-o-tolyl-propan-1-one oxime] came in with an EC50 of 578 nM.

As for `Cn1cc(/C(CC(c2ccc(C(=O)NCCS(C)(=O)=O)cc2)c2ccc(Cl)cc2F)=N/O)ccc1=O` (stereo not drawn) [Example 313, 4-[1-(4-Chloro-2-fluoro-phenyl)-3-[(E)-hydroxyimino]-3-(1-methyl-6-oxo-1,6-dihydro-pyridin-3-yl)-propyl]-N-(2-methanesulfonyl-ethyl)-benzamide], the EC50 turned out to be 266 nM.

The molecule `Cc1ccccc1C(C/C(=N\O)c1ccc(=O)n(C)c1)c1ccc(C(=O)NCCS(C)(=O)=O)cc1` (stereo not drawn) [Example 310, (E)-4-(3-(Hydroxyimino)-3-(1-methyl-6-oxo-1,6-dihydropyridin-3-yl)-1-o-tolylpropyl)-N-(2-(methylsulfonyl)ethyl)benzamide] came in with an EC50 of 153 nM.

`Cc1ccccc1C(C/C(=N\O)c1ccc(=O)n(C)c1)c1ccc(C(=O)O)cc1` (stereo not drawn) [Example 360, 4-[3-[(E)-Hydroxyimino]-3-(1-methyl-6-oxo-1,6-dihydro-pyridin-3-yl)-1-o-tolyl-propyl]-benzoic acid] came in with an EC50 of 4760 nM.

Take `Cc1cc(/C(CC(c2ccc(-c3ccc(C(=O)O)c(F)c3)cc2)c2ccccc2C(F)(F)F)=N/O)ccn1` (stereo not drawn) [Example 135, 3-Fluoro-4′-[3-[(E)-hydroxyimino]-3-(2-methyl-pyridin-4-yl)-1-(2-trifluoromethyl-phenyl)-propyl]-biphenyl-4-carboxylic acid]: a half-maximal response (EC50) required 29 nM.

`Cc1cc(/C(C[C@H](c2ccc(C3CCNCC3)cc2)c2ccccc2C)=N/O)ccn1` [Example 378, (R,E)-1-(2-Methylpyridin-4-yl)-3-(4-(piperidin-4-yl)phenyl)-3-o-tolylpropan-1-one oxime] returned a concentration giving a half-maximal response (EC50) of 145 nM.
